Data from patent US20250360132A1, “METHODS OF ADMINISTERING MYOSIN INHIBITORS” (MYOKARDIA, INC., priority 2022, published 2025).

Columns and labels:
Solubility = type: physicochemical
CYP3A4 = CYP3A4 (Homo sapiens, UniProt P08684); experiment: Metabolism, contribution of CYP3A4; type: in vitro ADME
Source text: Mavacamten is extensively metabolized, primarily through CYP2C19 (74%), CYP3A4 (18%), and CYP2C9 (8%).
Statement of Purpose: Mavacamten is a first-in-class, selective, allosteric, and reversible cardiac myosin inhibitor in development for the treatment of adults with symptomatic obstructive hypertrophic cardiomyopathy. Mavacamten is hepatically metabolized predominantly via CYP2C19 (74%), CYP3A4 (18%) and CYP2C9 (8%). A previously developed fit-for-purpose physiologically based pharmacokinetic (PBPK) model was applied to explore the induction effects of a strong CYP3A4/CYP2C19 inducer-rifampin, as well as a strong CYP3A4 inducer-carbamazepine, on mavacamten exposures.

BSEP = BSEP (Homo sapiens, UniProt O95342); experiment: In vitro transporter inhibition; type: in vitro ADME
Chain of BSEP (O95342 whole entry): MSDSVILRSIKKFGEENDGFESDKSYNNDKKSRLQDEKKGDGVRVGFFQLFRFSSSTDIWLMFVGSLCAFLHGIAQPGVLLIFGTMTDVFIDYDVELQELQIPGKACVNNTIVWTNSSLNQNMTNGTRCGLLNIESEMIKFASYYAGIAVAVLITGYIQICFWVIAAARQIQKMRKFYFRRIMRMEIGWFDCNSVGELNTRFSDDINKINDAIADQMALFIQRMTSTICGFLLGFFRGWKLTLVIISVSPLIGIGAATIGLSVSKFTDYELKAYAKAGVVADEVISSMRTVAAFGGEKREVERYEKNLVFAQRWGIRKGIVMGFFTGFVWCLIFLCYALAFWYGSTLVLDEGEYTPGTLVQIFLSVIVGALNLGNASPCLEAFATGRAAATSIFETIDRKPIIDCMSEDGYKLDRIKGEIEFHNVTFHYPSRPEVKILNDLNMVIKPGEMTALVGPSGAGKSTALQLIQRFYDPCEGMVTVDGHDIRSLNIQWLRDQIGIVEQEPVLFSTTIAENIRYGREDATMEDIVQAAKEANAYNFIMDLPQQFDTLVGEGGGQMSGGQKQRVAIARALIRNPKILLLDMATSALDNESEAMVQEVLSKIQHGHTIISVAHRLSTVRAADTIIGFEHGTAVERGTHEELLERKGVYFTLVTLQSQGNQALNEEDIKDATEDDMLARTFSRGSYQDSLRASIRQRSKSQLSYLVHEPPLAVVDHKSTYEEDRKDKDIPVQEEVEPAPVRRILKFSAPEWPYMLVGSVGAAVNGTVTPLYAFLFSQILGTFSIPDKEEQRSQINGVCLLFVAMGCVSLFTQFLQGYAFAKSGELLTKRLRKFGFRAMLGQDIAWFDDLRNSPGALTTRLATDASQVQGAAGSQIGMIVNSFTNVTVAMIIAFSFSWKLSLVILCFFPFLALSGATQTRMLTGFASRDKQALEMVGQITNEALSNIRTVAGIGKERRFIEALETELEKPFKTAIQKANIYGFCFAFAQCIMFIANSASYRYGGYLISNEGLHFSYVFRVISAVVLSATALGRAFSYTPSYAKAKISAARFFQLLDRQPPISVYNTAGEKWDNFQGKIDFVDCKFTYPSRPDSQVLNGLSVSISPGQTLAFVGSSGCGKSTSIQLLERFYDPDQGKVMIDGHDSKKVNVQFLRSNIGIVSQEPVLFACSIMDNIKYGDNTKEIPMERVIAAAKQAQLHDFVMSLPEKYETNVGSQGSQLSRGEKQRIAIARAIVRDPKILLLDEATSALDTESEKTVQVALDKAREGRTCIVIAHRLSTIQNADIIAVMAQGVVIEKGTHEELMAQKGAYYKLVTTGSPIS

CYP2C19 = CYP2C19 (Homo sapiens, UniProt P33261); experiment: Clinical DDI with weak CYP2C19 inhibitor omeprazole; type: in vivo; parameters: host or cells: in silico (Simcyp v19); settings: mavacamten 15 mg with omeprazole 20 mg once daily; healthy CYP2C19 NMs and RMs
Chain of CYP2C19 (P33261 whole entry): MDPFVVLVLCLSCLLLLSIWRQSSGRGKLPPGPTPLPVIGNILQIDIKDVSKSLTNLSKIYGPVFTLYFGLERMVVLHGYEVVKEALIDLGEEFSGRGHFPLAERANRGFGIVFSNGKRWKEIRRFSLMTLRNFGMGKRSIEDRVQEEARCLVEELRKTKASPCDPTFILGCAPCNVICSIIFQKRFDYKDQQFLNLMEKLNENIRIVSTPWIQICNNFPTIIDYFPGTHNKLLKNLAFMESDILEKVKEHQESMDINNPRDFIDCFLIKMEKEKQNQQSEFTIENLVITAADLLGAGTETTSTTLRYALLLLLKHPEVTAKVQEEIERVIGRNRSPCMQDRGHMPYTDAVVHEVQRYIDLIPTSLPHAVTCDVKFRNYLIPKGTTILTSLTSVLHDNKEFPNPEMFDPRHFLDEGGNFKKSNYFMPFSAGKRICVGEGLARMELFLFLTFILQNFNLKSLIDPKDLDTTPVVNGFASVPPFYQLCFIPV

BCRP = BCRP (Homo sapiens, UniProt Q9UNQ0); experiment: In vitro transporter inhibition; type: in vitro ADME
Chain of BCRP (Q9UNQ0 whole entry): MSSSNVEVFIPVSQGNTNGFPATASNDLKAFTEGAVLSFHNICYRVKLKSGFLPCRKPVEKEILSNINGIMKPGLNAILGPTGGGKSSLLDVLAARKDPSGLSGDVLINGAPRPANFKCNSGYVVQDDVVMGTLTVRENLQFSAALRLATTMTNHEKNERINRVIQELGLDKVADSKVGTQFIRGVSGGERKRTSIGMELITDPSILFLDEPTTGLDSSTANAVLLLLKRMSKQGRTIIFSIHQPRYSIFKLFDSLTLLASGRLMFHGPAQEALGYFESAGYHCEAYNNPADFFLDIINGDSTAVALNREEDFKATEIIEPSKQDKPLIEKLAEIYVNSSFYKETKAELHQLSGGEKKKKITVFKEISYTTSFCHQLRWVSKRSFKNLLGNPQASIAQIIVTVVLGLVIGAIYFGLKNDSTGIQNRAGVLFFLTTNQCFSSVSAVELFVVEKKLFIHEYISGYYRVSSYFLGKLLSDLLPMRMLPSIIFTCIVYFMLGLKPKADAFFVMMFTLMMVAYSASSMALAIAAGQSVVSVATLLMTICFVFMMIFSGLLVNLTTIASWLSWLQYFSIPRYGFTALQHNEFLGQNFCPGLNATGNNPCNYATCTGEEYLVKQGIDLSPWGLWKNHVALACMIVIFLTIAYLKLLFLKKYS

P-gp = P-gp (Homo sapiens, UniProt P08183); experiment: In vitro transporter inhibition; type: in vitro ADME
Chain of P-gp (P08183 whole entry): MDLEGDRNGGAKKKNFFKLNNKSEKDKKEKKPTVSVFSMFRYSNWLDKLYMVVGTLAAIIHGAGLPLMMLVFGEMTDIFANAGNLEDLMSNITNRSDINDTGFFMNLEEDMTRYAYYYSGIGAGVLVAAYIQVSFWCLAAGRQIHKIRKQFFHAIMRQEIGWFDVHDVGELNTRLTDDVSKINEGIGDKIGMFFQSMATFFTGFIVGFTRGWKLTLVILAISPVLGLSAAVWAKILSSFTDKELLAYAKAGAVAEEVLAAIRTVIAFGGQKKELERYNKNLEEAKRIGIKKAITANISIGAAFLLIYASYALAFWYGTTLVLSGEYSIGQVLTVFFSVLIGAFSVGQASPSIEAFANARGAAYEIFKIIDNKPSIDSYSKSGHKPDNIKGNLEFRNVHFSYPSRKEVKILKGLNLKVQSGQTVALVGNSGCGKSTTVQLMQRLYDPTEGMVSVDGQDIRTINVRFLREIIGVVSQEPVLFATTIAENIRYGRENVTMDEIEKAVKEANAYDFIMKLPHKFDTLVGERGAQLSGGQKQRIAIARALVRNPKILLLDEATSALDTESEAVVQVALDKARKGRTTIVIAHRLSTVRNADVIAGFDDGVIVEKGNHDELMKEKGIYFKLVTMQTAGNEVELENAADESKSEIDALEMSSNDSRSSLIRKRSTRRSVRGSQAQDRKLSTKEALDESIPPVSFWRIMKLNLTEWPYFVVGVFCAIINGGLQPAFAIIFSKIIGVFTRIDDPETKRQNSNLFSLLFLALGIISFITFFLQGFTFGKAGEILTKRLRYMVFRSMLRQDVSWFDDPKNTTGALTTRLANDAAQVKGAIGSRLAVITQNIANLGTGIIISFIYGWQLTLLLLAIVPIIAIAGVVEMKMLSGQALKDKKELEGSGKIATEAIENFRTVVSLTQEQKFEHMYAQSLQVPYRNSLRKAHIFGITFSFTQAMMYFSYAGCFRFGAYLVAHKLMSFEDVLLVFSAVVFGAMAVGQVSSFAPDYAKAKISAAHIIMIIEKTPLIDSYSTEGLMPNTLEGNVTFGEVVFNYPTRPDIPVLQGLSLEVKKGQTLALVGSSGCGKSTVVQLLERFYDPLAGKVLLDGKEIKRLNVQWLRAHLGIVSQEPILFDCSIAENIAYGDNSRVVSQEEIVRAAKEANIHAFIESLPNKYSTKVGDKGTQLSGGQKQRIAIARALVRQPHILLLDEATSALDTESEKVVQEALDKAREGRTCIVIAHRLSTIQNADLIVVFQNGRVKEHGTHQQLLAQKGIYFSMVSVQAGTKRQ

MATE1 = MATE1 (Homo sapiens, UniProt Q96FL8); experiment: In vitro transporter inhibition; type: in vitro ADME
Chain of MATE1 (Q96FL8 whole entry): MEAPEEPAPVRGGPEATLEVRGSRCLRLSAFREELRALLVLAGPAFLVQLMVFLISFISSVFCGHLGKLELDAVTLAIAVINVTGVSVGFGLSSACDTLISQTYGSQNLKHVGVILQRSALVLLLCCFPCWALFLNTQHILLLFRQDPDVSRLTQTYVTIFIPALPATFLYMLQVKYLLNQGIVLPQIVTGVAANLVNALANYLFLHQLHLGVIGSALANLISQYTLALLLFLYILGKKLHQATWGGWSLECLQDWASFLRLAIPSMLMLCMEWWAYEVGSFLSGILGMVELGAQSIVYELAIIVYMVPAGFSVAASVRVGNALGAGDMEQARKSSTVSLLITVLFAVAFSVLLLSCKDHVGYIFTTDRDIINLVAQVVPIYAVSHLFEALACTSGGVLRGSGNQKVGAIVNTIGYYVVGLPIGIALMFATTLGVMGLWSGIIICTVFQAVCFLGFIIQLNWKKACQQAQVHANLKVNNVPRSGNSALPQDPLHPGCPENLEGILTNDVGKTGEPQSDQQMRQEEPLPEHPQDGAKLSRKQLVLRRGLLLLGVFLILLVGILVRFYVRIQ

[1] = Pre/postnatal development study; type: in vivo, rat; settings: female, rat, in vivo; oral, gestation Day 6 to lactation/post-partum Day 20; highest dosage level tested; read-out: no-observed-adverse-effect level (NOAEL)
Protocol: (§1) In a pre/postnatal development study, mavacamten was administered orally to pregnant rats (0.3, to 1.5 mg/kg/day) from gestation Day 6 to lactation/post-partum Day 20.

pregnant rats [2] = experiment: Pre/postnatal development study; type: in vivo, rat; settings: 0.3 to 1.5 mg/kg/day
Protocol: as §1

pregnant rats [3] = experiment: Embryo-fetal development study in rats; type: in vivo, rat
Source text: Plasma exposure (based on area under the concentration-time curve or AUC) at the no-effect dose for embryo-fetal development in rats is 0.3 times the exposure in humans at the MRHD.

[4] = system: patients with HCM and healthy subjects; experiment: Human experience of overdose / high doses; type: in vivo
[5] = system: adults with symptomatic NYHA class II and III obstructive HCM; experiment: EXPLORER-HCM Phase 3, double-blind, randomized, placebo-controlled trial; type: in vivo, human
Protocol: The safety of MAVACAMTEN was evaluated in EXPLORER-HCM, a Phase 3, double-blind, randomized, placebo-controlled trial. Of the 251 adults with obstructive HCM, 123 patients were treated with MAVACAMTEN 2.5-15 mg daily and 128 were treated with placebo.
The efficacy of MAVACAMTEN was evaluated in EXPLORER-HCM (NCT-03470545) a Phase 3, double-blind, randomized, placebo-controlled, multicenter, international, parallel-group trial in 251 adults with symptomatic NYHA class II and III obstructive HCM, LVEF ≥55%, and Valsalva LVOT peak gradient ≥50 mmHg at rest or with provocation.
Patients on dual therapy with beta blocker and calcium channel blocker treatment or monotherapy with disopyramide or ranolazine were excluded. Patients with a known infiltrative or storage disorder causing cardiac hypertrophy that mimicked obstructive HCM, such as Fabry disease, amyloidosis, or Noonan syndrome with left ventricular hypertrophy, were also excluded.
Patients were randomized in a 1:1 ratio to receive either a starting dose of 5 mg of MAVACAMTEN or placebo once daily for 30 weeks. Treatment assignment was stratified by baseline NYHA functional class, baseline use of beta blockers, and type of ergometer (treadmill or exercise bicycle).
All patients were initiated on MAVACAMTEN 5 mg (or matching placebo) once daily, and the dose was periodically adjusted to optimize patient response (decrease in LVOT gradient with Valsalva maneuver) and maintain LVEF ≥50%. The dose was also informed by plasma concentrations of MAVACAMTEN.
The primary composite functional endpoint, assessed at 30 weeks, was defined as the proportion of patients who achieved either improvement of […] (pVO2) by ≥1.5 mL/kg/min plus improvement in NYHA class by at least 1 or improvement of pVO2 by ≥3.0 mL/kg/min plus no worsening in NYHA class.
The treatment effects of MAVACAMTEN on LVOT obstruction, functional capacity, and health status were assessed by change from baseline through Week 30 in post-exercise LVOT peak gradient, change in pVO2, proportion of patients with improvement in NYHA class, Kansas City Cardiomyopathy Questionnaire-23 (KCCQ-23) Clinical Summary Score (CSS), and Hypertrophic Cardiomyopathy Symptom Questionnaire (HCMSQ) Shortness of Breath (SoB) domain score.
Missing data were not imputed to summarize the baseline and change from baseline to Week 30 values. Difference in mean change from baseline between treatment groups was estimated using a mixed model for repeated measures.

Chain of CYP3A4 (P08684 whole entry): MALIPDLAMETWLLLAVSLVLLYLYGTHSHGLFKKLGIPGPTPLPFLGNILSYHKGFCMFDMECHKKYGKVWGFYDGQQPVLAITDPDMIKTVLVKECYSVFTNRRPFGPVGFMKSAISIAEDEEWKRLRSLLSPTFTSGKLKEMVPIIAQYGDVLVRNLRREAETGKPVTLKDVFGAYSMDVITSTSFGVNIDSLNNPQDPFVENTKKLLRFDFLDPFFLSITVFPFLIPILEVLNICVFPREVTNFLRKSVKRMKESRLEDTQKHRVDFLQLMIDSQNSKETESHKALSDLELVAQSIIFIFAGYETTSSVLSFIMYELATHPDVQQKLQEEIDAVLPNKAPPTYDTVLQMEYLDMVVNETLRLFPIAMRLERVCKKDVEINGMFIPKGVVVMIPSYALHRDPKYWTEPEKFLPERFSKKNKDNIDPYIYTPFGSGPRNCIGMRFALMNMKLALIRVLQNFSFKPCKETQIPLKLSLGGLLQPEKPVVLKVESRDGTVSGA

CC(C)n1c(=O)cc(N[C@@H](C)c2ccccc2)[nH]c1=O [mavacamten, (S)-3-Isopropyl-6-((1-phenylethyl)amino)pyrimidine-2,4(1H,3H)-dione]
Solubility in DMSO and NMP (Solubility): freely soluble | Solubility in methanol and ethanol (Solubility): sparingly soluble | Solubility in water and aqueous buffers (Solubility; pH 2-10): practically insoluble | Metabolism through CYP3A4 (CYP3A4): 18% | Inhibition of BSEP (BSEP): does not inhibit | Increase in mavacamten AUCinf (CYP2C19): 48% | Inhibition of BCRP (BCRP): does not inhibit | Inhibition of P-gp (P-gp): does not inhibit | Inhibition of MATE1 (MATE1): does not inhibit | NOAEL [1]: 1.5 mg/kg/day | Effects in dams or offspring (pregnant rats [2]): No adverse effects were observed in the dams or offspring | Embryo-fetal findings in the high dose group (pregnant rats [3]; oral, 1.5 mg/kg/day, period of organogenesis): increases in post-implantation loss, decreases in mean fetal body weight, reductions in fetal ossification of bones, and fetal malformations (visceral and skeletal) | Plasma exposure (AUC) at the no-effect dose for embryo-fetal development vs humans at the MRHD (pregnant rats [3]; rats): 0.3 times | Embryo-fetal findings (risk summary) (pregnant rats [3]; rats, dose exposures similar to that at the MRHD): decreases in mean fetal body weight, reductions in fetal ossification of bones, and increases in post-implantation loss | participants experiencing 20% or greater reductions in LVEF ([4]; healthy subjects, 25 mg dose level, up to 25 days): 3 of 8 | Outcome of accidental ingestion ([4]; infant, three 15 mg capsules): infant death | Events after single dose of 144 mg ([4]; one subject with HCM, subject recovered): serious adverse events including vasovagal reaction, hypotension, and asystole | Subgroup analysis of the primary composite functional endpoint ([5]; FIG. 17): consistently favored MAVACAMTEN across all subgroups analyzed | Adverse reaction: syncope, patients ([5]; MAVACAMTEN 2.5-15 mg daily, N=123, placebo 2%): 6% | Adverse reaction: dizziness, patients ([5]; MAVACAMTEN 2.5-15 mg daily, N=123, placebo 18%): 27% | Improvement across secondary endpoints vs placebo ([5]; Week 30): greater improvement compared to the placebo group across all secondary endpoints | NYHA Class improved ≥1, difference vs placebo ([5]; Week 30): 34% | Total responders, difference vs placebo (95% CI) ([5]; Week 30): 19% (9, 30) | pVO2 ≥1.5 mL/kg/min and decreased NYHA, difference vs placebo (95% CI) ([5]; Week 30): 19% (9, 30) | pVO2 ≥3 mL/kg/min and NYHA not increased, difference vs placebo (95% CI) ([5]; Week 30): 13% (3, 22) | Change from baseline pVO2 ≥1.5 mL/kg/min and decreased NYHA, number ([5]; Week 30, N=123): 41 | Change from baseline pVO2 ≥3 mL/kg/min and NYHA not increased, number ([5]; Week 30, N=123): 29 | Number with NYHA Class improved ≥1 ([5]; Week 30, N=123): 80 | Primary composite functional endpoint, total responders, number ([5]; Week 30, N=123): 45 | Primary composite functional endpoint, total responders, percent ([5]; Week 30, N=123, placebo 17%): 37% | KCCQ-23 CSS, change from baseline, mean ([5]; Week 30, n=99, placebo 4): 14 | HCMSQ SoB, change from baseline, mean ([5]; Week 30, n=108, placebo −1): −3 | KCCQ-23 PL, change from baseline, mean ([5]; Week 30, placebo 4): 15 | KCCQ-23 TSS, change from baseline, mean ([5]; Week 30, placebo 5): 12 | Change from baseline pVO2 ≥3 mL/kg/min and NYHA not increased, percent ([5]; Week 30, placebo 11%): 23% | Change from baseline pVO2 ≥1.5 mL/kg/min and decreased NYHA, percent ([5]; Week 30, placebo 14%): 33% | Percent with NYHA Class improved ≥1 ([5]; Week 30, placebo 31%): (65%) | LVEF outcome after interruption in patients with LVEF <50% ([5]; all 7 patients): LVEF recovered following interruption | Benefit by background beta blocker therapy ([5]; attenuated improvement in pVO2): smaller in patients on background beta blocker therapy | Post-Exercise LVOT gradient, difference vs placebo ([5]; baseline to Week 30): −35 mmHg | pVO2, difference vs placebo ([5]; baseline to Week 30): 1.4 mL/kg/min | Change in pVO2, mean ([5]; baseline to Week 30, placebo −0.1): 1.4 mL/kg/min | Change in Post-Exercise LVOT gradient, mean ([5]; baseline to Week 30, placebo −10): −47 mmHg | patients who temporarily interrupted their dose due to LVEF <50% ([5]; in vivo): Three | patients whose LVEF reduction to <50% was asymptomatic ([5]; of the 7 MAVACAMTEN patients): 3 | mean (SD) absolute change from baseline in LVEF ([5]; over the 30-week treatment period, placebo 0% (7)): -4% (8) | Syncope leading to discontinuation, patients ([5]; patients receiving MAVACAMTEN): 0.8% | onset of reduction in LVOT gradient ([5]; sustained throughout the 30-week trial): reductions in mean resting and provoked (Valsalva) LVOT gradient by Week 4 | patients with reversible reductions in LVEF to <50%, number ([5]; while on treatment, N=123): 7 | patients with reversible reductions in LVEF to <50%, percent ([5]; while on treatment, placebo 2%): 6%
